“Also recorded” adds a separate entry of the source.
Assays:
HT29 tumor = test: In vivo efficacy of CAIX targeting bispecific adapters on HT29 tumor model; set-up: species or system mouse; details: NSG mice, subcutaneous HT29, 10 million anti-FITC CAR-T cells plus adapter; FIG. 7B
Description: (§1) HT29 cells (1.5 million) were implanted into each NOD scid gamma (NSG) mouse by subcutaneous injection. When the tumor volumes reached about 100 mm^3, the treatment groups were injected with 10 million anti-FITC CAR-T cells and bispecific adapters as shown in FIG. 7A. The tumor volume and body weight were monitored regularly. Tumor volume was calculated using the formular: (length*width^2)/2.

MDA-CAIX cells [1] = test: Total binding and FITC surface exposure of CAIX bispecific adapters on MDA-CAIX cells; assay type: cell-based; details: 1 μM adapter, 1 hour room temperature; FIG. 3C
Description: (§2) HT29 cells or MDA-CAIX cells were incubated with 1 μM bispecific adapters with different ligands to CAIX and different polyethylene glycol (PEG) linkers in complete RPMI medium (RPMI+10% FBS) for one hour at room temperature. Free compounds were washed away, and fluorescent intensity of fluorescein isothiocyanate (FITC) was analyzed by flow cytometry.
(§3) To analyze the surface exposure of the FITC moiety, the stained cells were incubated with allophycocyanin (APC)-anti-FITC antibody on ice for 30 minutes. Then the cells were washed, and the fluorescent intensity of APC was analyzed by flow cytometer.

HT29 cells = test: Total binding and FITC surface exposure of CAIX bispecific adapters on HT29 cells; assay type: cell-based; details: 1 μM adapter, 1 hour room temperature; FIG. 3A
Description: as §2, §3

MDA-CAIX tumor cells = test: Retention and surface exposure of CAIX bispecific adapters in MDA-CAIX tumor cells from treated mice; assay type: in vivo, mouse; details: for CAIX levels of tumor cells (MFI of FITC after staining with 100 nM meta-CAL-PEG6-FITC in vitro): MDA-CAIX tumors from treated mice, FIG. 11C
Description: MDA-CAIX tumors from mice in different treatment groups were dissected and digested into single cells 24 hours after the last injections with CAIX bispecific adapters at 500 nmol/kg. The total retention of the bispecific adapters was determined by the FITC fluorescence intensity analyzed by flow cytometry. To estimate the CAIX protein levels in the tumor cells, the cells were stained with 100 nM meta-CAL-PEG6-FITC for 1 hour at room temperature and analyzed by flow cytometry. The FITC exposure of the bispecific adapters on the tumor cell surface was analyzed by flow cytometry after staining with APC-anti-FITC antibody on ice for 30 minutes. Surface exposure of FITC was also analyzed in the cells stained with 100 nM meta-CAL-PEG6-FITC.

HT29 tumor cells = test: Retention and surface exposure of CAIX bispecific adapters in HT29 tumor cells from injected mice; assay type: in vivo, mouse; details: 500 nmol/kg, 24 hours after injection, APC-anti-FITC staining; FIG. 8C
Description: HT29 tumor bearing mice were injected with CAIX bispecific adapters at 500 nmol/kg. After injection (24 hours later), the tumors were dissected and digested into single cells. The total retention of the bispecific adapters was determined by the FITC fluorescence intensity analyzed by flow cytometry. To analyze the FITC exposure of the bispecific adapters on the tumor cell surface, the digested tumor cells were stained with APC-anti-FITC antibody on ice for 30 minutes. After washing away unbound antibody, the fluorescent intensity of APC was analyzed by flow cytometry.

[2] = system: anti-FITC CAR-T cells co-cultured with MDA-CAIX cells; test: Bispecific adapter mediated IFNγ release from anti-FITC CAR-T cells co-cultured with MDA-CAIX cells (ELISA); assay type: cell-based; details: adapter concentration between 0.001 nM and 1 nM; MDA-CAIX co-culture; FIGS. 4B, 5B
Description: (§4) Anti-FITC CAR-T cells were incubated with an equal number of MDA-CAIX cells in the presence of bispecific adapters at different concentrations. The number of MDA-CAIX cells was determined at the end of the co-culture, and the percentage of cell lysis was calculated using the following formula: [(number of untreated cells−number of treated cells)/number of untreated cells]*100%.
Secretion of interferon gamma (IFNγ) from anti-FITC CAR-T cells was analyzed by enzyme-linked immunosorbent assay (ELISA) using the supernatants of the co-cultured medium at the end of the co-culture.
Secretion of IFNγ from anti-FITC CAR T cells was analyzed by ELISA using the supernatants of the co-cultured medium at the end of the co-culture.
Secretion of IFNγ from anti-FITC CAR T cells was analyzed by ELISA using the supernatants of the co-cultured medium at the end of the co-culture study.

MDA-CAIX cells [3] = test: Bispecific adapter mediated anti-FITC CAR-T cell cytotoxicity to MDA-CAIX cells; assay type: cell-based
Description: as §4
as §4, with “presence of the bispecific adapters” for “presence of bispecific adapters”
Anti-FITC CAR T cells were incubated with an equal number of MDA-CAIX cells in the presence of the bispecific adapters at different concentrations. The number of MDA-CAIX cells were determined at the end of the co-culture and the percentage of cell lysis was calculated using the following formula: [(number of untreated cells−number of treated cells)/number of untreated cells]*100%.

T cells = test: T cell counts in the blood and HT29 tumors from mice at end of treatments; set-up: species or system mouse; details: end of HT29 in vivo study
Description: At the end of the in vivo study on HT29 solid tumor model described in FIGS. 7A-7C, blood was collected from the mice, and the red blood cells in the blood were lysed by using red blood cell lysis buffer (BioLegend, San Diego, CA). The remaining cells were stained with anti-human CD3 antibody on ice for 30 minutes. The number of T cells was analyzed by flow cytometry. To analyze tumor-infiltrated T cells, tumors were dissected and digested to single cells. The digested cells were stained with Zombie Violet cell viability staining dye (BioLegend. San Diego, CA) and anti-human CD3 antibody. The percentage of CD3 T cells in total live cells was analyzed by flow cytometry.

[4] = Body weight change of mice in HT29 tumor model; assay type: in vivo, mouse; details: HT29 tumor-bearing NSG mice treated with anti-FITC CAR-T cells plus adapter; FIG. 7C
Description: as §1

[5] = system: anti-FITC CAR-T cells co-cultured with HT29 cells; test: Bispecific adapter mediated anti-FITC CAR-T cell IFNγ release when co-cultured with HT29 cells (ELISA); assay type: cell-based; details: HT29 cells at 1:5 ratio, 40 hours
Description: (§5) Anti-FITC CAR-T cells were incubated with HT29 cells at 1:5 ratio in the presence of the bispecific adapters at different concentrations for 40 hours. Secretion of IFNγ from anti-FITC CAR-T cells was analyzed by ELISA using the supernatants of the co-cultured medium at the end of the co-culture study.
as §5, with “CAR T” for “CAR-T”

MDA-CAIX tumors = test: In vivo efficacy of CAIX targeting bispecific adapters on MDA-CAIX tumor model; set-up: species or system mouse; details: NSG mice, subcutaneous MDA-CAIX, 10 million anti-FITC CAR T-cells plus adapter; FIG. 10B
Description: (§6) MDA-CAIX cells (5 million) were implanted into each NSG mouse by subcutaneous injection. When the tumor volumes reached about 100 mm^3, the treatment groups were injected with 10 million anti-FITC CAR T-cells and indicated bispecific adapters as shown in FIG. 10A. The tumor volume and body weight were monitored regularly. Tumor volume was calculated using the formular: (length*width^2)/2.

[6] = Body weight change of mice in KB tumor model; assay type: in vivo, mouse; details: KB tumor-bearing NSG mice; FIG. 16C
Description: as §6, with “KB” for “MDA-CAIX”, “(1” for “(5”, “50” for “100”, “CAR-T cells” for “CAR T-cells”, “16A.” for “10A.”, “formula:” for “formular:”

[7] = low concentrations (between 0.001 nM and 0.1 nM), FIG. 5A

Row | Compound | growth of HT29 tumor (tumor volume) (HT29 tumor) | total binding to HT29 cells (MFI of FITC) (HT29 cells) | CAIX levels of tumor cells (MFI of FITC after staining with 100 nM meta-CAL-PEG6-FITC in vitro) (MDA-CAIX tumor cells) | surface retention and FITC exposure in HT29 tumors (MFI of APC-anti-FITC) (HT29 tumor cells) | IFNγ release from anti-FITC CAR-T cells [2] | efficacy of anti-FITC CAR-T cell cytotoxicity, lysis (%) (MDA-CAIX cells [3]; [7]) | growth of MDA-CAIX tumors (tumor volume) (MDA-CAIX tumors) | also measured
1 | NS(=O)(=O)c1nnc(NC(=O)CCCCCCCNC(=S)Nc2ccc(-c3c4ccc(=O)cc-4oc4cc(O)ccc34)c(C(=O)O)c2)s1 [Aza-FITC] | slightly inhibited the growth of HT29 tumor | better total binding to HT29 cells than the other adapters | slightly higher CAIX levels than tumors treated with meta-CAL-FITC with PEG3 or PEG6 | – | – | – | – | total binding to MDA-CAIX cells (MFI of FITC) (MDA-CAIX cells [1]): better total binding to MDA-CAIX cells
2 | NS(=O)(=O)c1c(F)c(F)c(S(=O)(=O)CCC(=O)NCCOCCOCCOCCOCCOCCOCCNC(=S)Nc2ccc(-c3c4ccc(=O)cc-4oc4cc(O)ccc34)c(C(=O)O)c2)c(NC2CCCCCCC2)c1F [meta-CAL-PEG6-FITC] | – | – | – | better FITC exposure than meta-CAL-PEG3-FITC | higher level of IFNγ release from anti-FITC CAR-T cells than ortho-CAL-PEG6-FITC and Aza-FITC; also recorded: higher levels of IFNγ release from anti-FITC CAR-T cells than meta-CAL-PEG3-FITC | higher efficacy than meta-CAL-PEG3-FITC | – | surface retention and FITC exposure in MDA-CAIX tumors (MFI of APC-anti-FITC) (MDA-CAIX tumor cells; 24 hours after last injection at 500 nmol/kg, FIG. 11D): slightly better surface retention and FITC exposure than the other compounds; efficacy of anti-FITC CAR-T cell cytotoxicity, lysis (%) (MDA-CAIX cells [3]; adapter between 0.001 nM and 10 nM, equal number of CAR-T and MDA-CAIX cells, FIG. 4A): higher than ortho-CAL-PEG6-FITC and Aza-FITC
3 | NS(=O)(=O)c1c(F)c(F)c(S(=O)(=O)CCC(=O)NCCOCCOCCOCCOCCOCCOCCOCCOCCOCCNC(=S)Nc2ccc(-c3c4ccc(=O)cc-4oc4cc(O)ccc34)c(C(=O)O)c2)c(NC2CCCCCCC2)c1F [meta-CAL-PEG9-FITC] | significantly inhibited the growth of HT29 tumor | – | – | better FITC exposure than meta-CAL-PEG3-FITC | higher levels of IFNγ release from anti-FITC CAR-T cells than meta-CAL-PEG3-FITC | higher efficacy than meta-CAL-PEG3-FITC | – | T cell counts in blood (T cells; anti-human CD3 staining, FIG. 9A): more T cells than the blood from other treatment groups; tumor-infiltrated T cells (CD3+ T cells/live cells) (T cells; digested tumors, FIG. 9B): more tumor-infiltrated T cells; body weight change [4]: lost body weight; IFNγ released from anti-FITC CAR-T cells ([5]; low concentrations (<0.1 nM), FIG. 15): highest level of IFNγ released from anti-FITC CAR-T cells
4 | NS(=O)(=O)c1c(F)c(F)c(SCCC(=O)NCCOCCOCCOCCOCCOCCOCCNC(=S)Nc2ccc(-c3c4ccc(=O)cc-4oc4cc(O)ccc34)c(C(=O)O)c2)c(F)c1NC1CCCCCCC1 [ortho-CAL-PEG6-FITC] | – | – | complete eradication of CAIX^+ tumor cells by CAR T cells | – | – | – | significantly inhibited the growth of MDA-CAIX tumors | staining of anti-FITC antibody (MFI of APC-anti-FITC after staining with 100 nM meta-CAL-PEG6-FITC in vitro) (MDA-CAIX tumor cells; MDA-CAIX tumor cells from treated mice, FIG. 11E): almost no staining of anti-FITC antibody; IFNγ released from anti-FITC CAR-T cells ([5]; ELISA, FIGS. 14, 15): lower levels of IFNγ released from anti-FITC CAR-T cells; body weight change [6]: did not induce significant body weight loss; also recorded: didn't induce significant body weight loss
5 | NS(=O)(=O)c1c(F)c(F)c(S(=O)(=O)CCC(=O)NCCOCCOCCOCCNC(=S)Nc2ccc(-c3c4ccc(=O)cc-4oc4cc(O)ccc34)c(C(=O)O)c2)c(NC2CCCCCCC2)c1F [meta-CAL-PEG3-FITC] | slightly inhibited the growth of HT29 tumor | better total binding to HT29 cells than the other adapters | – | – | – | – | slightly inhibited the growth of MDA-CAIX tumors | –

— patent US20260263643A1, “BI-SPECIFIC ADAPTERS AND THEIR USE WITH UNIVERSAL CAR-T CELLS IN THE TREATMENT OF CAIX-EXPRESSING TUMORS” (Purdue Research Foundation, priority 2023, published 2026)
